This note sets out measurements from patent US20120010177A1, “MicroRNA Modulators and Method for Identifying And Using The Same” (The Wistar Institute / North Carolina State University, priority 2008, published 2012).

As a reminder, the AC50 is the concentration giving half of the maximal activity seen.

The test system of one test is miR-21. In words: High throughput primary miR-21 FLuc reporter assay (concentration-response). As to conditions: HeLa Luc-miR-21 reporter, 48-hour incubation. Type of test: cell-based, human. As for the experimental part: Primary miR-21 Assay. The primary miR-21 FLuc reporter assay is carried out with HeLa cells expressing the Luc-miR-21 reporter using a 48-hour incubation time. Active compounds that increase the luciferase response are identified based upon inhibition of miR-21.
SAR. The concentration-response data for the entire high throughput screen is plotted and modeled by a four parameter logistic fit and SAR analysis is performed according to conventional approaches (Iglese, et al. (2006) Proc. Natl. Acad. Sci. USA […]:11473-8). In brief, Class 1.1 and 1.2 are full curves containing upper and lower asymptotes with efficacy ≧80% and <80%, respectively. Class 2.1 and 2.2 are incomplete curves having only one asymptote with efficacy ≧80% and <80%, respectively. Class 3 curves show activity at only the highest concentration or are poorly fit. […] For SAR analysis, compounds associated with Class 1 and 2.1 curves are clustered using LEADSCOPE® fingerprints. […] Compounds sharing a common scaffold form a series. Candidate series and singletons are chosen for follow up studies. For each lead or series, an appropriate library design method (e.g., point substitution library or matrix library) is selected. Typically, precursors are synthesized and a library of 15-25 compounds is produced for analysis in the above-described assays.
For orientation: A reporter such as luciferase makes a cellular process visible.
As for `CC(C)c1ccc2nc(SCC(=O)NCC3CCCO3)c(C#N)cc2c1` (centres unmarked) [Compound 135, CC(C)C1═C/C═C2/N═C(SCC(═O)NCC3CCCO3)\C(═C/C\2═C\1)C#N], the Efficacy is on record as −60.74.

The compound `Nc1[nH]cnc2nc(SCC(=O)Nc3ccccc3F)nc1-2` [Compound 154, N\C1═C2/N═C(SCC(═O)NC3═C/C═C\C═C\3F)\N═C\2\N═C/N1] returned an Efficacy of −64.80.

The test is the same for the next values; noted with them: HeLa Luc-miR-21 reporter, 48-hour incubation, four parameter logistic fit.
On to `CC(C)c1ccc2nc(SCC(=O)NCC3CCCO3)c(C#N)cc2c1` (centres unmarked) [Compound 135, CC(C)C1═C/C═C2/N═C(SCC(═O)NCC3CCCO3)\C(═C/C\2═C\1)C#N], for which the “Curve Class” value is given as −2.2.

Turning to `Nc1[nH]cnc2nc(SCC(=O)Nc3ccccc3F)nc1-2` [Compound 154, N\C1═C2/N═C(SCC(═O)NC3═C/C═C\C═C\3F)\N═C\2\N═C/N1], the “Curve Class” value is −2.2.

The same test, now with this note: HeLa Luc-miR-21 reporter, 48-hour incubation; read-out: AC50.
`COC(=O)/C(=C/c1cccc([N+](=O)[O-])c1)NC(=O)c1ccc(OC)cc1` [Compound 89]: the AC50 turned out to be 5.21 µM.

Turning to `CC(C)c1ccc2nc(SCC(=O)NCC3CCCO3)c(C#N)cc2c1` (centres unmarked) [Compound 135, CC(C)C1═C/C═C2/N═C(SCC(═O)NCC3CCCO3)\C(═C/C\2═C\1)C#N], the half-maximal activity concentration (AC50) turned out to be 5.85 µM.

Regarding `Nc1[nH]cnc2nc(SCC(=O)Nc3ccccc3F)nc1-2` [Compound 154, N\C1═C2/N═C(SCC(═O)NC3═C/C═C\C═C\3F)\N═C\2\N═C/N1], the AC50 was determined as 14.7 µM.

The test is the same for the next values; noted with them: Homo sapiens, HeLa, 48 h, HeLa Luc-miR-21 reporter, 48-hour incubation; read-out: AC50.
As to `CC(C)COc1ccc(C(=O)Nc2cc(-c3ccccc3)no2)cc1` [Compound 88], the AC50 was 4.65 µM.

Turning to `COc1cccc(C(=O)NCCC2=CCCCC2)c1OC` [Compound 90], the AC50 amounted to 5.85 µM.

Turning to `O=C(Nc1ccc(-c2nc3ccccc3[nH]2)cc1)c1ccc2c(c1)OCO2` [Compound 91], the AC50 amounted to 6.56 µM.

Consider `COc1ccc(C(=O)Nc2nnc(C(C)C)s2)cc1OC` [Compound 92], for which the AC50 turned out to be 7.36 µM.

For the compound `CCn1nnc2cc(C(=O)Nc3ccc(OC)cc3)ccc21` [Compound 93], the AC50 stood at 11.7 µM.

In the case of `CC(C)C(=O)Nc1nc2c(s1)CC(C(C)(C)C)CC2` (centres unmarked) [Compound 94], the AC50 was 2.07 µM.

As to `CC(C)(C)C1CCc2nc(NC(=O)Cc3cn4ccsc4n3)sc2C1` (centres unmarked) [Compound 95], the concentration at half-maximal activity (AC50) was 8.26 µM.

Take `O=C(CCc1ccccc1)Nc1cccnc1Cl` [Compound 96]: the AC50 was 13.1 µM.

Take `CC(=O)Nc1nc2c(C)cc(NC(=O)C3CCCCC3)cc2s1` [Compound 97]: the AC50 is 14.7 µM.

In the case of `CCC(=O)Nc1ccc(NC(=O)C23CC4CC(CC(C4)C2)C3)cn1` [Compound 98], the AC50 was 16.5 µM.

With `CCCC(=O)Nc1ccc(NC(=O)C23CC4CC(CC(C4)C2)C3)cn1` [Compound 99], the AC50 is 18.5 µM.

For the compound `COCC(=O)Nc1c(C(=O)Nc2ccc3c(c2)OCCO3)oc2ccccc12` [Compound 100], the half-maximal activity concentration (AC50) amounted to 0.66 µM.

Consider `COc1ccc(NC(=O)c2ncn(-c3ccccc3)n2)cc1Cl` [Compound 101], for which the AC50 was determined as 9.27 µM.

Consider `COc1ccc(NC(=O)c2nnn(CC(=O)Nc3cccc(C)c3C)c2N)c(OC)c1` [Compound 102], for which the AC50 is 13.1 µM.

For `COc1ccc(NC(=O)c2sc3nc[nH]c(=O)c3c2C)cc1Cl` [Compound 103], the AC50 is 16.5 µM.

On to `COc1ccc(NC(=O)c2ccccc2NC(=O)c2ccccc2C(=O)O)c(OC)c1` [Compound 104], for which the AC50 turned out to be 18.5 µM.

Regarding `NC(=O)c1ccccc1NC(=O)c1ccc(-c2ccc(Br)cc2)o1` [Compound 105], the AC50 came to 1.17 µM.

With `O=C(Nc1nnc(S(=O)(=O)N2CCCC2)s1)c1ccc(F)cc1` [Compound 106], the AC50 turned out to be 3.69 µM.

Regarding `O=C(Nc1ccccc1OC(=O)c1ccc(Cl)cc1)c1ccc(Cl)cc1` [Compound 107], the AC50 was 11.7 µM.

On to `Cn1nnc2cc(C(=O)Nc3ccccc3F)ccc21` [Compound 108], for which the concentration at half-maximal activity (AC50) came out at 14.7 µM.

For `O=C(Nc1ccc2nn(-c3ccccc3)nc2c1)c1ccc(-c2cccc(Cl)c2)o1` [Compound 109], the AC50 worked out at 18.5 µM.

Turning to `Cc1ccc(-c2cc(C(=O)NCCc3ccccc3)c3c(-c4ccc(C)cc4)[nH]nc3c2)cc1` [Compound 110], the AC50 came to 9.26 µM.

In the case of `Cc1ccc(NC(=O)Cc2noc3ccccc23)nc1` [Compound 111], the AC50 was 16.5 µM.

Consider `O=C(Nc1ccc2nc3n(c(=O)c2c1)CCCCC3)c1ccccc1Cl` [Compound 112], for which the concentration at half-maximal activity (AC50) worked out at 6.56 µM.

Take `Nc1cc(N)nc(SCC(=O)Nc2ccc(Br)cc2Cl)n1` [Compound 113]: the AC50 was determined as 11.7 µM.

Consider `Cc1cccc(NC(=O)C2Cc3ccccc3O/C2=N/O)c1` (centres unmarked) [Compound 114], for which the AC50 stood at 10.4 µM.

In the case of `COc1ccc(C(Nc2ccccn2)c2c(NC(=O)c3ccco3)sc(C)c2C)cc1OC` (centres unmarked) [Compound 115], the AC50 is 16.5 µM.

For the compound `CN1CCN(NC(=O)Nc2ccc(Br)cc2Cl)CC1` [Compound 116], the AC50 was 13.1 µM.

Regarding `COc1ccc(C(=O)NCCC2=CCCCC2)cc1OC1CCN(C(C)C)CC1` [Compound 117], the AC50 was determined as 16.5 µM.

`COC(=O)/C(=C/c1cccc([N+](=O)[O-])c1)NC(=O)c1ccc(OC)cc1` [Compound 119]: the AC50 was determined as 10.4 µM.

On to `CCCC(=O)N(CCN1CCOCC1)c1nc2cc(C)c(C)cc2s1` [Compound 120], for which the AC50 is 7.36 µM.

As for `N#CC1Cc2cc3c(cc2N=C1SCC(=O)N1CCOCC1)OCO3` (centres unmarked) [Compound 121], the concentration at half-maximal activity (AC50) was 0.66 µM.

`O=C(CSc1nnc(-c2ccc(Cl)cc2)o1)Nc1ccc(F)cc1` [Compound 122]: the AC50 stood at 1.04 µM.

Regarding `O=C(CSc1nnc(-c2ccc(O)cc2)o1)Nc1ccccc1Br` [Compound 123], the AC50 came out at 1.31 µM.

Take `O=C(CSc1nnc(-c2ccccn2)o1)Nc1cccc(Cl)c1` [Compound 124]: the AC50 turned out to be 1.85 µM.

As to `COc1ccc(NC(=O)CSc2nc(SC)ns2)c(OC)c1` [Compound 125], the concentration at half-maximal activity (AC50) was 2.07 µM.

For the compound `CC(C)(C)c1ccc(-c2nc(NC(=O)CSc3ccc4ccccc4n3)ns2)cc1` [Compound 126], the AC50 turned out to be 2.33 µM.

In the case of `Cc1c(-c2nnc(SCC(=O)Nc3ccccc3F)o2)nnn1-c1ccc(F)cc1` [Compound 127], the AC50 was 2.93 µM.

Turning to `Cc1cc(C)c(C#N)c(SCC(=O)Nc2ccc3c(c2)OCO3)n1` [Compound 128], the half-maximal activity concentration (AC50) was 3.29 µM.

Regarding `Cc1cc(C(F)(F)F)c(C#N)c(SCC(=O)Nc2nc3cc(Br)ccc3s2)n1` [Compound 129], the AC50 came out at 3.69 µM.

Turning to `C#Cc1cccc(NC(=O)CSc2nnc(-c3ccc(C(F)(F)F)cn3)o2)c1` [Compound 130], the AC50 came to 4.14 µM.

In the case of `CSc1nsc(SCC(=O)Nc2ccc(F)cc2F)n1` [Compound 131], the AC50 was found to be 4.14 µM.

As to `O=C(CSc1nnc(-c2ccc(C(F)(F)F)cn2)o1)Nc1cccc(Cl)c1` [Compound 132], the AC50 was found to be 4.14 µM.

For the compound `Cc1cc(NC(=O)CSc2nc3ccsc3c(=O)n2NC(=O)c2ccccc2)no1` [Compound 133], the AC50 came to 5.21 µM.

As to `Cc1cccc(-c2nnc(SCC(=O)Nc3ccc(C)c(C)c3)o2)c1` [Compound 134], the AC50 amounted to 5.85 µM.

With `N#CC1=C(SCC(=O)Nc2ccccc2)NC(=O)CC1c1ccc(O)cc1` (centres unmarked) [Compound 136], the AC50 turned out to be 6.56 µM.

Consider `COc1ccc(NC(=O)CSc2nnc(-c3cccs3)o2)cc1` [Compound 137], for which the AC50 is 6.56 µM.

For the compound `CC(C)(C)c1ccc(NC(=O)CSc2nnc(-c3[nH]nc4ccccc34)o2)cc1` [Compound 138], the AC50 was found to be 6.56 µM.

With `COc1cccc(NC(=O)CSc2nnc(-c3cccs3)o2)c1` [Compound 139], the AC50 came to 6.56 µM.

As to `Cc1ccc(SCC(=O)Nc2ccc3oc(-c4ccc(F)cc4)nc3c2)cc1` [Compound 140], the AC50 worked out at 7.36 µM.

Turning to `Cc1ccc(NC(=O)CSc2nnc(-c3cccs3)o2)cc1S(=O)(=O)N(C)C` [Compound 141], the AC50 worked out at 8.26 µM.

As for `O=C(CSc1nnc(-c2ccccn2)o1)Nc1ccccc1C(F)(F)F` [Compound 142], the AC50 was determined as 9.27 µM.

With `CN(C(=O)CSc1nnc(-c2ccccc2F)o1)C1CCCCC1` [Compound 143], the half-maximal activity concentration (AC50) came out at 9.27 µM.

With `COc1cc2cc(C#N)c(SCC(=O)N3CCOCC3)nc2cc1OC` [Compound 144], the AC50 came out at 11.7 µM.

As to `COCc1cc(C)nc(SCC(=O)Nc2ccc3c(c2)OCCO3)c1C#N` [Compound 145], the AC50 worked out at 11.7 µM.

Turning to `CCC(=O)Oc1ccc(NC(=O)CSCc2ccccc2)cc1` [Compound 146], the AC50 amounted to 11.7 µM.

For `Cc1ccc(-c2csc(NC(=O)CSc3nc4ccccc4o3)n2)cc1` [Compound 147], the AC50 was 11.7 µM.

Take `Cc1cccc(-c2nsc(SCC(=O)Nc3ccc4c(c3)OCO4)n2)c1` [Compound 148]: the AC50 came out at 13.1 µM.

Regarding `O=C(CSc1nnc(-c2cccnc2)o1)Nc1cccc(Cl)c1` [Compound 149], the half-maximal activity concentration (AC50) is 13.1 µM.

Consider `CSc1nsc(SCC(=O)N2CCCCC2)n1` [Compound 150], for which the AC50 turned out to be 13.1 µM.

Consider `COc1ccc(-c2nnc(SCC(=O)Nc3cccc(C)c3)s2)cc1` [Compound 151], for which the AC50 was 13.1 µM.

As for `O=C(CSc1ccccc1)NCCc1ccccc1` [Compound 152], the AC50 turned out to be 14.7 µM.

As to `COc1ccccc1NC(=O)CSc1nnc(-c2ccccn2)o1` [Compound 153], the AC50 was 14.7 µM.

Consider `CCN(CC)C(=O)CS/C(=N/C#N)Nc1ccccc1F` [Compound 155], for which the AC50 was 14.7 µM.

Take `Cc1cc(C)c(C#N)c(SCC(=O)Nc2nonc2N)n1` [Compound 156]: the concentration at half-maximal activity (AC50) stood at 14.7 µM.

Turning to `Cc1cc(C)cc(NC(=O)CSc2nnc(-c3ccccc3C)o2)c1` [Compound 157], the AC50 stood at 14.7 µM.

With `CSc1nsc(SCC(=O)Nc2ccccc2F)n1` [Compound 158], the AC50 worked out at 14.7 µM.

On to `Cc1ccc(-c2nnc(SCC(=O)Nc3nccs3)n2N)cc1` [Compound 159], for which the AC50 turned out to be 16.5 µM.

As for `CCOC(=O)N1CCN(C(=O)CSCc2ccccc2Cl)CC1` [Compound 160], the AC50 was 16.5 µM.

In the case of `Cc1ccc(-c2nsc(SCC(=O)Nc3ccc4c(c3)OCO4)n2)cc1` [Compound 161], the half-maximal activity concentration (AC50) turned out to be 16.5 µM.
